The source of these data is patent US7041701B2, “Triterpenoid derivatives” (Univerzita Palackeho V Olomouci, priority 2000, dated 2006).

Each structure is given as a SMILES string.

Assay [1] relates to K562-CdA human promyelocytic leukemia, cladrubin resistant. The assay can be described thus: MTT cytotoxicity assay, K562-CdA. As to conditions: 72 hours, read-out: TCS50. The assay is classed as cell-based. An excerpt:
(§1) One of the parameters used as the basis for colorimetric assays is the metabolic activity of viable cells. For example, a microtiter assay which uses the tetrazolium salt MTT is now widely used to quantitate cell proliferation and cytotoxicity [Hajdúch M, Mihál V, Minarík J, Fáber E, Safárová M, Weigl E, Antálek P.: Cytotechnology, 1996, 19, 243–245]. For instance, this assay is used in drug screening programs and in chemosensitivity testing. Because tetrazolium salts are cleaved only by metabolically active cells, these assays exclusively detect viable cells. In the case of the MTT assay, yellow soluble tetrazolium salt is reduced to a coloured water-insoluble formazan salt. After it is solubilized, the formazan formed can easily and rapidly be quantified in a conventional ELISA plate reader at 570 nm (maximum absorbancy). The quantity of reduced formazan corresponds to the number of vital cells in the culture. […]
(§2) The cell suspensions that were prepared and diluted according to the particular cell type and the expected target cell density (2,500–30,000 cells per well based on cell growth characteristics) were added by pipette (80 μl) into 96/well microtiter plates. […] Usually, test compounds were evaluated at six 4-fold dilutions. […] The tumour cell survival (TCS) was calculated using the following equitation: TCS=(ODdrug exposed well/mean ODcontrol wells)×100%. […]

A further assay deals with U87MG human glioblastoma. The assay can be described thus: MTT cytotoxicity assay, U87MG. The assay is classed as cell-based. As to conditions: 72 hours, read-out: TCS50.
From the text: as §1, §2

In assay [2] the test system is SW620 human colon cancer, metastasis. The assay can be described thus: MTT cytotoxicity assay, SW620. As to conditions: 72 hours, read-out: TCS50. The format is cell-based.
From the text: as §1, §2

The test system of assay [3] is Caco-2 human colon cancer. The assay can be described thus: MTT cytotoxicity assay, Caco-2. The format is cell-based. Particulars: 72 hours, read-out: TCS50.
From the text: as §1, §2

The subject of assay [4] is MCF-7 human breast cancer, estrogen dependent, p53+/+, Rb+/+. The assay can be described thus: MTT cytotoxicity assay, MCF-7. The assay is classed as cell-based. Particulars: 72 hours, read-out: TCS50.
From the text: as §1, §2

The test system of assay [5] is Saos2 human, p53−/−, Rb−/−. Put plainly: MTT cytotoxicity assay, Saos2. Particulars: 72 hours, read-out: TCS50. The assay is classed as cell-based.
From the text: as §1, §2

Assay [6] deals with CEM-VCR 1/F3 human T-lymphoblastic leukemia, vincristin resistant. Put plainly: MTT cytotoxicity assay, CEM-VCR 1/F3. The assay is classed as cell-based. Particulars: 72 hours, read-out: TCS50.
From the text: as §1, §2

The test system of assay [7] is CEM-DNR bulk human T-lymphoblastic leukemia, daunorubicin resistant. The assay can be described thus: MTT cytotoxicity assay, CEM-DNR bulk. The format is cell-based. As to conditions: 72 hours, read-out: TCS50.
From the text: as §1, §2

The test system of assay [8] is MDA-MB-238 human breast cancer, estrogen independent, p53mut/mut. Put plainly: MTT cytotoxicity assay, MDA-MB-238. The format is cell-based. Particulars: 72 hours, read-out: TCS50.
From the text: as §1, §2

The next assay deals with B16 mouse melanoma. The assay can be described thus: MTT cytotoxicity assay, B16. The format is cell-based. Particulars: 72 hours, read-out: TCS50.
From the text: as §1, §2

Assay [9] concerns K562-FLUD human promyelocytic leukemia, fludarabin resistant. The assay can be described thus: MTT cytotoxicity assay, K562-FLUD. The format is cell-based. Particulars: 72 hours, read-out: TCS50.
From the text: as §1, §2

The test system of assay [10] is K562-ARA-C human promyelocytic leukemia, cytarabin resistant. Put plainly: MTT cytotoxicity assay, K562-ARA-C. The assay is classed as cell-based. As to conditions: 72 hours, read-out: TCS50.
From the text: as §1, §2

Assay [11] deals with B16F mouse melanoma, metastatic. Put plainly: MTT cytotoxicity assay, B16F. The format is cell-based. Particulars: 72 hours, read-out: TCS50.
From the text: as §1, §2

Assay [12] has as its system U2OS human osteosarcoma, p53+/−, Rb+/−. Put plainly: MTT cytotoxicity assay, U2OS. The format is cell-based. As to conditions: 72 hours, read-out: TCS50.
From the text: as §1, §2

In assay [13] the test system is human SK-N-AS neuroblastoma. The assay can be described thus: In vivo activity in xenotransplanted human neuroblastoma. On the set-up: species or system CD-1/Ctrl-1 nu/nu nude female mice. Particulars: I.3 1 or 2 mg/mouse s.c. or i.p., 3×D1,2,5,6,9,10; SK-N-AS in nude mice (FIG. 2). How it is done: Human neuroblastoma SK-N-AS cell line was obtained from ATTC. The line was cultured in Dulbeco's modified essential medium with 4.5 g dextrose/l, 10% of foetal calf serum, 2 mM glutamine, 100 U/ml penicillin and […] streptomycin. For transplantation purposes, only the cells in log phase were used.
CD-1/Ctrl-1 nu/nu nude female mice, 8 weeks old, 18–22 g weight were used in this study (IffaCredo, France). Animals were inoculated with 5.10^6 tumour cells subcutaneously into right inquinal region. Following transplantation, tumor growth was measured in both the control/vehicle and the treated groups using calipers. Tumor volume (TV) was calculated as follows: TV=(a^2×b)/2, where a is width and b is length The statistical significance was evaluated using a […].
Cisplatin (Platidiam 10 inj, sicc., Lachema, Czech Republic) was used as a control drug in this experiment. It was diluted in apyrogenic water and applied to animals in a final volume of 0.18 ml subcutaneously at day 1.
I.3 was synthesised as described above. It was suspended at 10 mg/ml in 5% dextrose and pH was adjusted to 8.0 with sodium hydroxide. vehicle: 5% dextrose with pH adjusted to 8.0 with sodium hydroxide. […]

Consider `CC(=O)OC[C@@]1(C(=O)O)CC[C@]2(C)[C@H](CC[C@@H]3[C@@]4(C)CC[C@H](OC(C)=O)C(C)(C)[C@@H]4CC[C@]32C)C1=O` [I.3, 3β,28-diacetoxy-18-oxo-19,20,21,29,30-pentanorlupan-22-oic acid], for which the IC50 was determined as 300 nM in assay [1]; 5100 nM with U87MG human glioblastoma; 1200 nM in [2]; 3000 nM in assay [3]; 2300 nM in assay [4]; 1800 nM in [5]. Further, the IC50 in [6] is 3300 nM; in assay [7] it was 1100 nM; in assay [8], 1400 nM; in the assay on B16 mouse melanoma, 2100 nM; in assay [9], 400 nM; in assay [10], 600 nM. Moreover, the IC50 in [11] came out at 4700 nM; in [12] it was 1500 nM. For the same molecule, in assay [13], the “tumor growth (tumor volume)” value is reported as “no tumor growth”.
